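A five-concentration, 48-hour dose response in 96-well plates underlies each endpoint, interpolated linearly between surrounding concentrations. TGI is the concentration that stops growth completely.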
Experiments:
Assay in all cases: DTP human tumour cell line panel, 48 h
[1] = test system: 786-0 renal
[2] = test system: A498 renal
[3] = test system: A549 NSCLC
[4] = test system: ACHN renal
[5] = test system: CAKI-1 renal
[6] = test system: CCRF-CEM leukemia
[7] = test system: COLO 205 colon
[8] = test system: DMS 114 small cell lung
[9] = test system: DMS 273 small cell lung
[10] = test system: EKVX NSCLC
[11] = test system: HCC-2998 colon
[12] = test system: HCT-15 colon
[13] = test system: HL-60(TB) leukemia
[14] = test system: HT29 colon
[15] = test system: IGROV1 ovarian
[16] = test system: K-562 leukemia
[17] = test system: KM12 colon
[18] = test system: KM20L2 colon
[19] = test system: LOX IMVI melanoma
[20] = test system: LXFL 529 NSCLC
[21] = test system: M14 melanoma
[22] = test system: M19-MEL melanoma
[23] = test system: MALME-3M melanoma
[24] = test system: MOLT-4 leukemia
[25] = test system: NCI-H226 lung
[26] = test system: NCI-H23 lung
[27] = test system: NCI-H460 lung
[28] = test system: NCI-H522 lung
[29] = test system: OVCAR-3 ovarian
[30] = test system: OVCAR-4 ovarian
[31] = test system: OVCAR-5 ovarian
[32] = test system: OVCAR-8 ovarian
[33] = test system: RPMI-8226 leukemia
[34] = test system: RXF 393 renal
[35] = test system: SF-268 CNS
[36] = test system: SF-295 CNS
[37] = test system: SF-539 CNS
[38] = test system: SK-MEL-2 melanoma
[39] = test system: SK-MEL-28 melanoma
[40] = test system: SK-MEL-5 melanoma
[41] = test system: SK-OV-3 ovarian
[42] = test system: SN12C renal
[43] = test system: SNB-19 CNS
[44] = test system: SNB-75 CNS
[45] = test system: SNB-78 CNS
[46] = test system: SW-620 colon
[47] = test system: TK-10 renal
[48] = test system: U251 CNS
[49] = test system: UACC-257 melanoma
[50] = test system: UACC-62 melanoma
[51] = test system: UO-31 renal
[52] = test system: BT-549 breast
[53] = test system: DU-145 prostate
[54] = test system: HCT-116 colon
[55] = test system: HOP-62 NSCLC
[56] = test system: HOP-92 NSCLC
[57] = test system: HS 578T breast
[58] = test system: MCF7 breast
[59] = test system: MDA-MB-231 breast
[60] = test system: MDA-MB-435
[61] = test system: MDA-N
[62] = test system: NCI/ADR-RES ovarian
[63] = test system: PC-3 prostate
[64] = test system: SR leukemia
[65] = test system: T-47D breast

## O=[N+]([O-])c1cc([N+](=O)[O-])c(/C=C/c2ccc(Cl)c(Cl)c2)cc1/C=C/c1ccc(Cl)c(Cl)c1
[1]
  TGI: 60.3 µM
[2]
  TGI: > 100 µM
[3]
  TGI: > 100 µM
[4]
  TGI: 81.9 µM
[5]
  TGI: > 100 µM
[6]
  TGI: 53.4 µM
[7]
  TGI: 38.6 µM
[8]
  TGI: 68.1 µM
[9]
  TGI: 96.4 µM
[10]
  TGI: > 100 µM
[11]
  TGI: > 100 µM
[12]
  TGI: 58.9 µM
[13]
  TGI: 49.2 µM
[14]
  TGI: 63.7 µM
[15]
  TGI: 66.8 µM
[16]
  TGI: 78.8 µM
[17]
  TGI: 51.1 µM
[18]
  TGI: 81 µM
[19]
  TGI: 61.6 µM
[20]
  TGI: 56.1 µM
[21]
  TGI: 52 µM
[22]
  TGI: 46.1 µM
[23]
  TGI: 56.3 µM
[24]
  TGI: 62.4 µM
[25]
  TGI: 66.3 µM
[26]
  TGI: 50.8 µM
[27]
  TGI: > 100 µM
[28]
  TGI: 56.4 µM
[29]
  TGI: 59.8 µM
[30]
  TGI: > 100 µM
[31]
  TGI: > 100 µM
[32]
  TGI: > 100 µM
[33]
  TGI: 50.3 µM
[34]
  TGI: 37 µM
[35]
  TGI: 75.8 µM
[36]
  TGI: 81 µM
[37]
  TGI: 51.5 µM
[38]
  TGI: 56.4 µM
[39]
  TGI: 59.2 µM
[40]
  TGI: 35.7 µM
[41]
  TGI: > 100 µM
[42]
  TGI: 43.1 µM
[43]
  TGI: 66.5 µM
[44]
  TGI: > 100 µM
[45]
  TGI: > 100 µM
[46]
  TGI: 88.6 µM
[47]
  TGI: > 100 µM
[48]
  TGI: > 100 µM
[49]
  TGI: 51.3 µM
[50]
  TGI: 79.6 µM
[51]
  TGI: 36.1 µM

## Cc1ccc([N+](=O)[O-])cc1S(=O)(=O)Nc1ccc(C2=NOC(c3cccs3)C2)cc1 (centres undefined)
[1]
  TGI: 37.7 µM
[2]
  TGI: 36.7 µM
[3]
  TGI: 67.2 µM
[4]
  TGI: 46.3 µM
[52]
  TGI: 41 µM
[5]
  TGI: 70.4 µM
[6]
  TGI: 50.2 µM
[7]
  TGI: > 100 µM
[53]
  TGI: 52.7 µM
[10]
  TGI: 65 µM
[11]
  TGI: 21.9 µM
[54]
  TGI: 28.1 µM
[12]
  TGI: 28.5 µM
[13]
  TGI: 25.7 µM
[55]
  TGI: 29.1 µM
[56]
  TGI: 57 µM
[57]
  TGI: 83 µM
[14]
  TGI: 40.2 µM
[15]
  TGI: 30 µM
[16]
  TGI: 43.6 µM
[17]
  TGI: 29.1 µM
[19]
  TGI: 23.6 µM
[21]
  TGI: 20.8 µM
[23]
  TGI: > 100 µM
[58]
  TGI: 23.4 µM
[59]
  TGI: > 100 µM
[60]
  TGI: 10.4 µM
[61]
  TGI: 10.4 µM
[24]
  TGI: 22.3 µM
[25]
  TGI: > 100 µM
[26]
  TGI: 73.4 µM
[27]
  TGI: 28.8 µM
[28]
  TGI: 21.2 µM
[62]
  TGI: 41.1 µM
[29]
  TGI: 19.7 µM
[30]
  TGI: 32.3 µM
[31]
  TGI: > 100 µM
[32]
  TGI: 69.9 µM
[63]
  TGI: > 100 µM
[33]
  TGI: 94.5 µM
[34]
  TGI: 22.4 µM
[35]
  TGI: 99.2 µM
[36]
  TGI: 44.1 µM
[37]
  TGI: 56.5 µM
[38]
  TGI: 28.3 µM
[39]
  TGI: > 100 µM
[40]
  TGI: 22.5 µM
[41]
  TGI: 52.2 µM
[42]
  TGI: 53.3 µM
[43]
  TGI: 53.1 µM
[44]
  TGI: 61.8 µM
[64]
  TGI: 11.5 µM
[46]
  TGI: 48.4 µM
[65]
  TGI: 50.5 µM
[47]
  TGI: 50.3 µM
[49]
  TGI: 49.6 µM
[50]
  TGI: 17.8 µM
[51]
  TGI: 21.9 µM

From PubChem BioAssay (NCI)
